The subject of one data set is P. aeruginosa PAO1. The experiment in a line: Biofilm formation / bacterial adhesion assay, PVC microtiter plates, crystal violet. As to conditions: 50 μg/ml, 6 h. Type of data set: cell-based, Pseudomonas aeruginosa. Here is the method: FIGS. 7A and 7B: PSP-peptides inhibit biofilm formation. P. aeruginosa PAO1 (overnight cultures, diluted 1:100 were incubated with 50 μg/ml of each peptide (LL37, GK7, GL13, KL11) or lysozyme for 6 h under aerobic (FIG. 7A) or reduced oxygen (anaerobic) (FIG. 7B) conditions. The OD 570 (growth) was determined and the attached cells were then quantitated by staining with crystal violet (biofilm). Growth and biofilm values were normalized against the mean of samples without peptides (HOAc) and expressed as mean±SEM. The data in panel A are from three independent experiments, N=22−24. The data in panel B are from two independent experiments, N=16. Lysozyme (Lyz) data are from a single experiment, N=8. *) different from Growth, P<0.002
(§1) Overnight cultures of P. aeruginosa PAO1 were diluted 1:100 in MHB and 100 μl/well were incubated with 5 μl of LL-37, GK-7, GL-13, KL-11 or lysozyme (1 mg/ml) in PVC microtiter plates. The plates were incubated for 6 h at 32° C. under aerobic or reduced oxygen conditions. Bacterial growth was quantitated spectrophotometrically at 570 nm. Twenty-five μl of 1% crystal violet in dH2O was added to each well and incubated 20 min at room temperature. The wells were emptied and washed three times in dH2O and then incubated for 30 min with 200 μl of 95% ethanol. The OD at 570 nm was determined as a measure of biofilm formation. Growth and biofilm values were normalized against the mean of samples incubated with 0.01% acetic acid without peptides.
as §1, with “μl of the bacterial suspension was mixed” for “μl/well were incubated”, “50 μg/ml” for “5 μl”, “lysozyme” for “lysozyme (1 mg/ml)”

The subject of a further data set is RAW 264.7 cells. The experiment in a line: Assay for inflammation: TNFα secretion with peptides alone (ELISA). Type of data set: cell-based, mouse. As for the experimental part: (§2) FIGS. 15A and 15B. FIG. 15A. Inhibition of endotoxin-stimulated TNFα secretion. RAW 264.7 macrophage cells were stimulated with 100 ng/ml LPS in the presence or absence of the PSP-derived peptides GK7, KL11 or GL13 (200 μg/ml). Polymyxin B (PMX) was used as a positive control. Further controls consisted of peptides alone without LPS stimulation. TNFα secretion was analyzed by ELISA of the RAW culture medium. The data are from triplicate RAW culture dishes for each condition. *) different from LPS alone P<0.03, **) P<0.0002. FIG. 15B. Dose response curve for the inhibition of LPS-induced TNFα secretion by GL-13.
To determine if the PSP peptides cause an inflammatory response in RAW 264.7 cells, the cells were incubated with each peptide for 24 h and TNFα secretion was quantitated by ELISA.
The vaccine adjuvant monophosphoryl lipid A (MPLA) a low-toxicity derivative of LPS was used to stimulate RAW cells in the presence or absence of PSP peptides (200 μg/ml) or the anti-inflammatory peptide polymyxin B (PMX). Control samples were incubated with the peptides alone.
On the technique in general: In an ELISA, binding on a coated surface is turned into a signal by an enzyme label.

Data set [1] relates to P. aeruginosa with RAW 264.7 macrophage cells. The experiment in a line: Gentamicin protection assay (phagocytosis / clearance by macrophages). As to conditions: 100 μg/ml peptide. Type of data set: cell-based, mouse. As for the experimental part:
FIG. 13. Phagocytosis of P. aeruginosa: Bacteria (5×10^8 CFU/ml) were incubated with buffer (Blk), GK-7 or GL-13 (100 μg/ml) for 1 h and added to RAW cells for 2 h. The RAW cells were washed and incubated with […] for 90 min. The cells were lysed in 1% Tween-20 and the diluted contents plated on agar. CFU were enumerated and expressed relative to the mean of the blank in each of three experiments (N=9) *) P=0.025.
Overnight cultures of P. aeruginosa were diluted 1:5 in PBS and incubated for 1 h at room temperature with PSP peptides (100 μg/ml) or with an equivalent amount of 0.01% acetic acid. Aliquots (500 μl) of these samples were added to RAW 264.7 macrophage cells cultured in 24-well plates and incubated for 2 h at 37° C., 5% CO2. The cells were washed in DMEM and then incubated with DMEM containing 200 μg/ml Gentamicin for 90 min at 37° C., 5% CO2. The cells were again washed with DMEM and the incubated with 200 μl/well of PBS containing 1% Tween 20 for 5 min at room temperature. The cell extracts were diluted in LB and plated on LB agar plates. CFU were enumerated after overnight incubation at 37° C.

For the next data set, the system named is P. aeruginosa. Nature of the data set: Antibacterial activity in vivo, Romaine lettuce infection model. Also noted: species or system Pseudomonas aeruginosa. As to conditions: 200 μg/ml peptide injected with bacteria, scored after 2-3 days. Here is the method: FIG. 4: Antibacterial activity in vivo. Romaine lettuce leaves were injected with P. aeruginosa (10^8 cells/nil) in the presence or absence of 200 μg/ml of antibacterial peptides. After 2-3 days incubation the injection sites were scored for infection on a scale of 0-100% relative to the no-bacteria (0% infection) and bacteria-only controls (PAO1) (100%). Data are from six independent experiments and are shown as mean±SEM, N=4−12. *) P<0.04, **) P<0.003.
Romaine lettuce heads were purchased from local grocery stores. Outer leaves were removed and undamaged leaves were selected. The leaves were rinsed in 0.1% bleach and incubated in plastic containers on filter paper moistened with 10 mM MgSO4. Overnight cultures of P. aeruginosa were diluted to 10^8 CFU/ml in 10 mM MgSO4 and supplemented with 200 μg/ml of each peptide. Ten μl (10^6 CFU, 2 μg peptide) were injected into the midrib of each leaf using a micro pipetter. Blank controls were incubated with buffer only, and bacterial controls were incubated without peptide. The plastic trays were covered and incubated at 35° C. Leaves were inspected daily for browning around the injection site or along the midrib. Generally rotting or moldy leaves were discarded. Infection was scored on a scale from 0% to 100% relative to blank controls and bacterial controls, respectively.

Another data set deals with sheep red blood cells. The experiment in a line: Hemagglutination assay. As to conditions: PBS, absence of serum, 2 h. Type of data set: cell-based. As for the experimental part:
FIG. 22: Hemagglutination of sheep red blood cells. RBCs were washed in PBS and incubated for 2 h in microtiter plates in PBS±5% fetal calf serum. Peptide concentrations were 83 μg/ml. The microtiter plate was imaged. Agglutinated red blood cells form a wide mat of cells, while non-agglutinated cells form a button shaped pellet.
Briefly, unmodified sheep erythrocytes (Cappel, M P Biomedicals, Irvine, Calif.) were washed in PBS and suspended at 1% in PBS. Diluted erythrocytes and 20 μg/ml of each peptide in PBS were mixed in polypropylene microtiter plates (120 μl per well) and incubated for 2 h at 35° C. The plates were imaged on a Kodak Image station.

In data set [2] the test system is P. aeruginosa PAO1 on MDCK cell monolayers. The experiment in a line: Epithelial invasion assay, MDCK monolayer penetration. Type of data set: cell-based, Pseudomonas aeruginosa. As to conditions: 24 h. As for the experimental part: FIG. 10. MDCK monolayer penetration: MDCK cells were cultured on filter supports and infected on the apical side with 10^6 CFU/ml of P. aeruginosa PAO1 (PAO1) or bacteria mixed with PSP peptides, as indicated. Control MDCK cells were incubated with buffer alone (HOAc). After 24 h incubation at 37° C., the OD 600 nm was determined for the media in the basolateral compartment to detect bacterial penetration of the MDCK cell monolayer.
To determine if PSP peptides prevent the penetration of epithelial cell monolayers, the epithelial cell line MDCK was cultured on permeable membrane filters. P. aeruginosa were added to the apical medium of confluent MDCK cell monolayers and bacterial penetration was determined as the number of bacteria recovered from the basolateral medium after a 24 h incubation.

Data set [3] concerns Aggregatibacter (Actinobacillus) actinomycetemcomitans JP2. It counts as cell-based. As to conditions: 4 h, reduced oxygen. Here is the method:
The PSP peptides GL13, GK7 and KL11, lysozyme, LL37 or no peptide (BLK) were incubated with P. aeruginosa (FIG. 3A) or A. actinomycetemcomitans (FIG. 3B). P. aeruginosa PAO1 (10^5 cells/ml) were incubated for 2 h at 35° C. with 10 μg/ml (open bars) or 100 μg/ml (shaded bars) of each peptide. A. actinomycetemcomitans JP2 (10^5 cells/nil) were incubated for 4 h at 37° C. under reduced oxygen conditions. Bacterial cultures were diluted and plated on LB agar (Pseudomonas) or BHI agar plates (A.a., low oxygen incubation) and surviving CFUs enumerated. The data are shown as mean±SEM, P. aeruginosa: N=8−22 at 100 μg/ml, N=2−10 at 10 μg/ml. A. actinomycetemcomitans: N=3. *) P<0.0001, **) P<0.004, ***) P<0.02
Overnight cultures of bacteria were pelleted and resuspended in 10 mM sodium phosphate, pH 7.4 (10^5 CFU/ml). Diluted bacteria (100 μl) were incubated with 10 or 100 μg/ml of each peptide in 10 mM sodium phosphate, pH 7.4. P aeruginosa PAO1 were incubated for 2 h at 35° C. while A. actinomycetemcomitans JP2 were incubated for 4 h at 37° C. under reduced oxygen conditions. […]
As a second antibacterial assay, bactericidal activity was determined by incubating the peptides (10 or 100 μg/ml) with P. aeruginosa, A. actinomycetemcomitans or S. gordonii in 10 mM phosphate buffer. […]

In data set [4] the test system is LPS-binding protein (LBP). Nature of the data set: Inhibition of LPS binding to LPS-binding protein (ELISA). Here is the method:
Analysis of the PSP sequence indicated three possible regions of biological activity. Initially, three peptides corresponding to the PSP sequence in these regions were designed and used in these studies. The initial step in the inflammatory cascade is the binding of LPS to LPS-binding protein. This binding was inhibited by preincubation of LPS with each of the three peptides. […] The binding of LPS to LPB was analyzed to ELISA. 0% inhibition (100% binding) was determined in the absence of inhibitors while 100% inhibition was determined in the presence of the inhibitor polymyxin B. The inhibition of each peptide is determined relative to the effect of polymyxin B.

The subject of data set [5] is RAW 264.7 macrophage cells. Nature of the data set: LPS-induced TNFα secretion (ELISA). Type of data set: cell-based, mouse. As to conditions: P. aeruginosa LPS. As for the experimental part:
as §2
In the present experiments, the redesigned PSP peptides (GL13, KL11) were tested for their effect on TNFα secretion and compared to GK7.

Entries after “also recorded” stand apart in the source; their conditions may differ. Like-named read-outs stand apart in the source and are kept apart here. No end group written: not given here.

GQIINLK [GK7, GQIINLK]: in the data set with P. aeruginosa PAO1 (aerobic), the “bacterial growth in biofilm/adhesion assay” value is on record as “affected neither growth nor adhesion” and the “biofilm formation / adhesion” value is reported as “affected neither growth nor adhesion”. In the data set with RAW 264.7 cells, the “TNFα secretion with peptide alone” value is “small increase in TNFα secretion”. Moreover, the “bacterial clearance / phagocytosis” value in [1] is “had no effect on clearance”. In addition, the “infection of lettuce leaves” value in the data set on P. aeruginosa is recorded as “neither GK-7 nor LL37 showed a significant effect on infection”. Further, the “hemagglutination (words)” value in the data set with sheep red blood cells was “did not cause hemagglutination”.
Consider KLLNNVISKLL [KL11, KLLNNVISKLL], for which, in the data set with P. aeruginosa PAO1 (aerobic), the “bacterial growth in biofilm/adhesion assay” value is recorded as “only a small (non-significant) reduction of bacterial growth” and the “inhibition of biofilm formation (adhesion)” value was determined as 40%. Moreover, the “biofilm formation” value in the data set on P. aeruginosa PAO1 (reduced oxygen conditions) is on record as “reduced biofilm formation under low oxygen conditions”. In the data set with P. aeruginosa, the “infection of lettuce leaves” value was “significantly reduced the infection; also recorded: significantly inhibit P. aeruginosa infection”. In data set [2], the “penetration / invasion of MDCK cell monolayers by P. aeruginosa” value is recorded as “could inhibit the penetration”. In addition, the “survival of A. actinomycetemcomitans” value in data set [3] turned out to be 40%. The “hemagglutination (words)” value with sheep red blood cells is “did not cause hemagglutination”.
In the case of polymyxin B [reference compound], in the data set with RAW 264.7 cells (no LPS stimulation), the “TNFα secretion with peptide alone” value is “exhibited toxicity to RAW cells, as evidenced by increased TNFα release”. The “effect on LPS binding to LBP” value in data set [4] was “Strong inhibition”. Also, the “inhibition of LPS-induced TNFα secretion” value in [5] is on record as “about 50%”. In addition, in the data set on sheep red blood cells, the “hemagglutination (words)” value is “did not cause hemagglutination”.

Source of the values: patent US9914750B2, “Synthetic peptides and peptide mimetics” (University of Louisville Research Foundation, priority 2007, dated 2018).
